From patent US6579541B2, “Oxidative fluorinator compounds as antimicrobials” (priority 2000, dated 2003) come the findings set out here.

The test system of assay [1] is bacterial colonies. As to the kind of experiment: Industrial cooling tower water, standard immersion test kit. As to conditions: about 1 ppm CoF3 with about 10 ppm KPS, about 1,000 gallons of water, after 24 hours. An excerpt: An industrial cooling tower containing about 1,000 gallons of water tested positive for a high bacterial colony count using a standard immersion test kit.

In assay [2] the test system is coliform. As to the kind of experiment: AOAC culture test of contaminated water, coliform counts. As to conditions: about 2 PPM XeF2 with about 20 PPM KPS, pH about 7, 37.4 cfu/mL. It counts as cell-based. As for the experimental part:
(§1) These and other aspects of the present invention may be more fully understood with reference to the following examples, which are merely illustrative of the preferred embodiments of the present invention, and are not to be construed as limiting the invention, the scope of which is defined by the appended claims. Unless otherwise indicated, antimicrobial evaluations of the various fluorinator compounds tested were performed versus control samples in cultures in accordance with the protocol as set forth in AOAC (15th) 1990:965:13 at colony densities indicated in the examples.
Contaminated water was prepared and measured to have AOAC coliform counts averaging 37.4 colony forming units per milliliter (cfu/mL). The water was treated by first adding crystal potassium monopersulfate (KPS) stabilizer, commercially available from E.I. DuPont de Nemours & Co. Corp. as OXONE®, and xenon difluoride (XeF2). The concentration in solution of the KPS and XeF2 was about 20 PPM and about 2 PPM respectively, and the pH of the treated solution was about 7.

Assay [3] deals with salmonella. As to the kind of experiment: AOAC culture test of aqueous solutions with salmonella contamination. Type of assay: cell-based. As to conditions: ten minutes exposure. As for the experimental part: Unless otherwise indicated, antimicrobial evaluations of the various fluorinator compounds tested were performed versus control samples in cultures in accordance with the protocol as set forth in AOAC (15th) 1990:965:13 at colony densities indicated in the examples.
Aqueous solutions were prepared having a salmonella contamination at a cell density of about 500,000 cfu/mL. Two solutions of XeF2 were prepared: one as a 1% solution in 85% phosphoric acid stabilizer, and a second solution containing no stabilizer. The materials were cultured versus controls at concentrations of about 2 ppm and about 4 ppm XeF2 and at a pH of about 9.

In assay [4] the test system is E. Coli ATCC 81377. In words: Hand soap base culture test. It counts as cell-based. Conditions: about 5 ppm XeF2 in hand soap base, about 320,000 cfu/mL, 30 seconds exposure. As for the experimental part: as §1
(§2) A hand soap base was prepared comprising an aqueous mixture of coconut fatty acid amide and sodium lauryl sulfate surfactants. XeF2 was incorporated into the hand soap base at a level of about 5 ppm and four separate cultures containing various microbes at a level of about 320,000 cfu/mL were evaluated.

Assay [5] concerns Enterococcus Faecalis (Vancomycin resistance). In words: Hand soap base culture test. Conditions: about 5 ppm XeF2 in hand soap base, about 320,000 cfu/mL, 30 seconds exposure. Type of assay: cell-based. The protocol: as §1, §2
Assay [6] concerns Salmonella ATC 14. In words: Hand soap base culture test. As to conditions: about 5 ppm XeF2 in hand soap base, about 320,000 cfu/mL, 30 seconds exposure. Type of assay: cell-based. As for the experimental part: as §1, §2
Assay [7] deals with Staph Aureus (Methicillin resistance). As to the kind of experiment: Hand soap base culture test. It counts as cell-based. Conditions: about 5 ppm XeF2 in hand soap base, about 320,000 cfu/mL, 30 seconds exposure. As for the experimental part: as §1, §2

Take `[F][Co]([F])[F]` [CoF3, cobalt trifluoride]: in assay [1], the “immersion kit test result on cooling tower water” value is “complete destruction of bacterial colonies”.
For the compound `F[Xe]F` [XeF2, xenon difluoride], the values for the coliform inhibited entry in assay [2] (5 minutes exposure) and in assay [2] (10 minutes exposure) were “about 73%” and “about 77%”, respectively. In addition, the inhibition result is “about 13.2%” in assay [3] (about 2 ppm XeF2, pH about 9, about 500,000 cfu/mL) and “about 96.4%” in assay [3] (about 4 ppm XeF2, pH about 9, about 500,000 cfu/mL). Further, the “Inhibition (%)” value in assay [4] is on record as 99.9%; in assay [5] it was 99.9%; in assay [6], 99.9%; in assay [7] it was 99.5%.
